# Assays:
# [1] = biological target: T1, mTOR (Homo sapiens, UniProt P42345); assay: Kinase competition binding assay (Ambit Biosciences), mTOR; conditions: tested at Ambit Biosciences; read-out: IC50 against mTOR
# T1 construct: purchased Ambit Biosciences (contract assay)
# Protocol: (§1) Assays are performed as described in Fabian et al. (2005) Nature Biotechnology, vol. 23, p. 329 and in Karaman et al. (2008) Nature Biotechnology, vol. 26, p. 127.
# (§2) Kinase assays. For most assays, kinase-tagged T7 phage strains are grown in parallel in 24-well blocks in an E. coli host derived from the BL21 strain. E. coli are grown to log-phase and are infected with T7 phage from a frozen stock (multiplicity of infection˜0.1) and are incubated with shaking at 32° C. until lysis (˜90 minutes). The lysates are centrifuged (6,000×g) and filtered ([…]) to remove cell debris. The remaining kinases are produced in HEK-293 cells and subsequently tagged with DNA for qPCR detection. Streptavidin-coated magnetic beads are treated with biotinylated small molecule ligands for 30 minutes at room temperature to generate affinity resins for kinase assays. The liganded beads are blocked with excess biotin and washed with blocking buffer (SeaBlock (Pierce), 1% BSA, 0.05% Tween 20, 1 mM DTT) to remove unbound ligand and to reduce non-specific phage binding. Binding reactions are assembled by combining kinases, liganded affinity beads, and test compounds in 1× binding buffer (20% SeaBlock, 0.17×PBS, 0.05% Tween 20, 6 mM DTT). Test compounds are prepared as 40× stocks in 100% DMSO and directly diluted into the assay. All reactions are performed in polypropylene 384-well plates in a final volume of 0.04 ml. The assay plates are incubated at room temperature with shaking for 1 hour and the affinity beads are washed with wash buffer (1×PBS, 0.05% Tween 20). The beads are then re-suspended in elution buffer (1×PBS, 0.05% Tween 20, 0.5 mM non-biotinylated affinity ligand) and are incubated at room temperature with shaking for 30 minutes. The kinase concentration in the eluates is measured by qPCR.
# (§3) Compounds were tested using the above assay at Ambit Biosciences (San Diego, Calif., USA).
# [2] = biological target: T2, PI3Kα (Homo sapiens, UniProt P42336); assay: Kinase competition binding assay (Ambit Biosciences), PI3Kα; conditions: tested at Ambit Biosciences; read-out: IC50 against PI3Kα
# T2 construct: purchased Ambit Biosciences (contract assay)
# T2 sequence (P42336 whole entry): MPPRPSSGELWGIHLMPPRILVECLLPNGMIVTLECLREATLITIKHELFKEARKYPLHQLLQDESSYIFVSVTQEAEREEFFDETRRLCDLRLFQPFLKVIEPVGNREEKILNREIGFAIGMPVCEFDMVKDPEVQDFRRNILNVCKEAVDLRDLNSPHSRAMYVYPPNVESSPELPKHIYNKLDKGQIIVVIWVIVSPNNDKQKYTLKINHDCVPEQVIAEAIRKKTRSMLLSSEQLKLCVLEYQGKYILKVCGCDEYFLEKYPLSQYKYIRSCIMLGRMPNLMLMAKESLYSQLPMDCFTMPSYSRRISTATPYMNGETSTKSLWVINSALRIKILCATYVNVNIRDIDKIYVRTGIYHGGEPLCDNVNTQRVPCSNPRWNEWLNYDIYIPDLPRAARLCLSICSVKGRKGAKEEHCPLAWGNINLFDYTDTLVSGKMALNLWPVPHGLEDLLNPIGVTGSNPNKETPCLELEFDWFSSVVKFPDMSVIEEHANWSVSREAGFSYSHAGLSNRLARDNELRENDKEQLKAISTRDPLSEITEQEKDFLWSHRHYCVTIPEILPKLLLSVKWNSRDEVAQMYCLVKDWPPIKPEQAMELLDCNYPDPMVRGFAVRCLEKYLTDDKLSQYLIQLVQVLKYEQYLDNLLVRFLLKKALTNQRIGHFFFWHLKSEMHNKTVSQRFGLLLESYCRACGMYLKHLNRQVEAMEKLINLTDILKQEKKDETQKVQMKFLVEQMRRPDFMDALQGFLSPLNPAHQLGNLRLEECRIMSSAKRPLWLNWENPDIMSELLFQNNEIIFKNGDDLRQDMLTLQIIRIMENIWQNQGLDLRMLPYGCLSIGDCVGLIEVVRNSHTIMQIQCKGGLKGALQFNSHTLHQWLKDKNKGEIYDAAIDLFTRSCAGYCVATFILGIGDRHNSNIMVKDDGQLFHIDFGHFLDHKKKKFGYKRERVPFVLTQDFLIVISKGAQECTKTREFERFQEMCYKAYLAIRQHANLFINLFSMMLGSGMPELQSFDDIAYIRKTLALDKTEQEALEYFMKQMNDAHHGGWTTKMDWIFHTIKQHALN
# Protocol: as §1, §2, §3
# [3] = biological target: T3, PI3Kβ (Homo sapiens, UniProt P42338); assay: Kinase competition binding assay (Ambit Biosciences), PI3Kβ; conditions: tested at Ambit Biosciences; read-out: IC50 against PI3Kβ
# T3 construct: purchased Ambit Biosciences (contract assay)
# T3 sequence (P42338 whole entry): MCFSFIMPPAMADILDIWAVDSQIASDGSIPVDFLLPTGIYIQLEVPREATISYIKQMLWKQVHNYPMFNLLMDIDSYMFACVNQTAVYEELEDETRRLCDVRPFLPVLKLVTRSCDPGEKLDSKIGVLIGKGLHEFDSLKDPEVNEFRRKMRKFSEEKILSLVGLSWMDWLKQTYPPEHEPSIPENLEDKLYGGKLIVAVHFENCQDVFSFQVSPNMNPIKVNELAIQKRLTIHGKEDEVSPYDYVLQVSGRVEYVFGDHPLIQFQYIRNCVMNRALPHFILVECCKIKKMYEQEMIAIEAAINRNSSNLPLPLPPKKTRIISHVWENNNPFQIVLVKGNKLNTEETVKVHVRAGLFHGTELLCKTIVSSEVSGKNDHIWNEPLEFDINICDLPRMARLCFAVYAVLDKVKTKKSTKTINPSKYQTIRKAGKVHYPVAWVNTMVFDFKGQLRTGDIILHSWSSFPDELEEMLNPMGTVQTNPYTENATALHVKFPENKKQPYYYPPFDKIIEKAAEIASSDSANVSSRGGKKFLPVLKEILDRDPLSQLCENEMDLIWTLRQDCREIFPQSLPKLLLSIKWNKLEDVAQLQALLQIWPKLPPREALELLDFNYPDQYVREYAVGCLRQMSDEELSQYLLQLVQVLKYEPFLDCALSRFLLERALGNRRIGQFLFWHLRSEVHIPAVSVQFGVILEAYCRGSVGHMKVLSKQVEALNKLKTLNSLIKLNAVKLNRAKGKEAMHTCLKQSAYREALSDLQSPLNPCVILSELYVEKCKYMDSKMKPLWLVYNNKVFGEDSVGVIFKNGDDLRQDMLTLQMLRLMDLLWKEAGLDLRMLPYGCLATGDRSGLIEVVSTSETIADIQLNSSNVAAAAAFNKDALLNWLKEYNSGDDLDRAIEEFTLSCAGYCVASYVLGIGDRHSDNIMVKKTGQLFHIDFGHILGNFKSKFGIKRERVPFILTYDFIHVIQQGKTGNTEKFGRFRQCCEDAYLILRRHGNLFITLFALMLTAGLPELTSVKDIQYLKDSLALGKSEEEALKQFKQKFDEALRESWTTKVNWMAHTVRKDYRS
# Protocol: as §1, §2, §3
# [4] = biological target: T4, PI3Kδ (Homo sapiens, UniProt O00329); assay: Kinase competition binding assay (Ambit Biosciences), PI3Kδ; conditions: tested at Ambit Biosciences; read-out: IC50 against PI3Kδ
# T4 construct: purchased Ambit Biosciences (contract assay)
# T4 sequence (O00329 1-1044): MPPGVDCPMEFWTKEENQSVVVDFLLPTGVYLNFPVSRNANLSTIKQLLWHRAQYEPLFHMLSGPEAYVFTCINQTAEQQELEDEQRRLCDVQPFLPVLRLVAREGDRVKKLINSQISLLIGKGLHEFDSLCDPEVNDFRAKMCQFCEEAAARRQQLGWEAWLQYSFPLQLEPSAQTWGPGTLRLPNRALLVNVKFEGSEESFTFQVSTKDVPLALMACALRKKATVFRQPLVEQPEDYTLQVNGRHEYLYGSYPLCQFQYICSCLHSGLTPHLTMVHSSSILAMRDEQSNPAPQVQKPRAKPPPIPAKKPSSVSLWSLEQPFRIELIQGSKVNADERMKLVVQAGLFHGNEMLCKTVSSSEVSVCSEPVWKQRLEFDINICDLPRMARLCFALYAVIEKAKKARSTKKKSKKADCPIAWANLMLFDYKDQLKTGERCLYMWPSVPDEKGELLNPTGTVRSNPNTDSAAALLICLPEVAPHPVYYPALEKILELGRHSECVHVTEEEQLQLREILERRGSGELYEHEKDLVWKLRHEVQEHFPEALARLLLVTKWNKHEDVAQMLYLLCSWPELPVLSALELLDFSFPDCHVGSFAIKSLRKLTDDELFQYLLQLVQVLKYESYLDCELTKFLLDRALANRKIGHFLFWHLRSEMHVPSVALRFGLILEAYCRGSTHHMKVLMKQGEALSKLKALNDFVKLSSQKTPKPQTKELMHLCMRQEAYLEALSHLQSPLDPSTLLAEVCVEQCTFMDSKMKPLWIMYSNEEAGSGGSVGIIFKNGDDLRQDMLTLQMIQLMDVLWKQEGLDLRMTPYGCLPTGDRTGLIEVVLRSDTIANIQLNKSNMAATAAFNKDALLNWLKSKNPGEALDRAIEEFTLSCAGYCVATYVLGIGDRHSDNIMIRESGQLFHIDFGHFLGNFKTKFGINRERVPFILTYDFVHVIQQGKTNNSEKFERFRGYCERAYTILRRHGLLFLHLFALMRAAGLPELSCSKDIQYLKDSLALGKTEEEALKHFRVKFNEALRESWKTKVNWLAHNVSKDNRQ
# Protocol: as §1, §2, §3
# [5] = biological target: T5, PI3Kγ (Homo sapiens, UniProt P48736); assay: Kinase competition binding assay (Ambit Biosciences), PI3Kγ; conditions: tested at Ambit Biosciences; read-out: IC50 against PI3Kγ
# T5 construct: purchased Ambit Biosciences (contract assay)
# T5 sequence (P48736 whole entry): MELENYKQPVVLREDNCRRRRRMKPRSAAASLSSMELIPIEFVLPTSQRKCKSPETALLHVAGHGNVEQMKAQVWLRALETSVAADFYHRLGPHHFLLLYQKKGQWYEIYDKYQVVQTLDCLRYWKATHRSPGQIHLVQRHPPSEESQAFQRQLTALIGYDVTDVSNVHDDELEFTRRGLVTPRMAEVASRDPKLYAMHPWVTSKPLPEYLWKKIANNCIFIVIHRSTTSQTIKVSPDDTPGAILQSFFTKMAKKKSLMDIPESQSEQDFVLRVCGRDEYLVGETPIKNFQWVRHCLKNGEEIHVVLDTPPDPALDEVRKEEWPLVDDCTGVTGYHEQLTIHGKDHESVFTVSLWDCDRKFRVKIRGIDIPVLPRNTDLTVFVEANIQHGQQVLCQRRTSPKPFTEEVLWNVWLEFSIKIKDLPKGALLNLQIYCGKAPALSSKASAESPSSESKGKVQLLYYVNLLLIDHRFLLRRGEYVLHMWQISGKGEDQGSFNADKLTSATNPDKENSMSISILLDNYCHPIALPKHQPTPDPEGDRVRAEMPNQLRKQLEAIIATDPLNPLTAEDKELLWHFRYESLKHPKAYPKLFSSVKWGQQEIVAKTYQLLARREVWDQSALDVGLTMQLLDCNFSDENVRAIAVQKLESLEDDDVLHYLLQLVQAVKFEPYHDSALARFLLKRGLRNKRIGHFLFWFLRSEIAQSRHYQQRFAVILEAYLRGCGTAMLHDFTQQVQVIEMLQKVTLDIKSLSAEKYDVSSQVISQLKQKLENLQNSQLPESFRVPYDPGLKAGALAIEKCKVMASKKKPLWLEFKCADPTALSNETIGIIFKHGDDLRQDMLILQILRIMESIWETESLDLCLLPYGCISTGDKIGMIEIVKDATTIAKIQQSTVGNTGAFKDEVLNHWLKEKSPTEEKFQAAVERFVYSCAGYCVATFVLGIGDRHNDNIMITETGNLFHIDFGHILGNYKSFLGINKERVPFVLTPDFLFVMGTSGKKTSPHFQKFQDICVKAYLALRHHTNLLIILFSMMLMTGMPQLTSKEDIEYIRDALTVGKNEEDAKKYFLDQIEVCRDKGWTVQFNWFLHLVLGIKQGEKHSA
# Protocol: as §1, §2, §3
# [6] = tested on: U87-MG cells; assay: Proliferation assay (Alamar blue), U87-MG; format: cell-based; conditions: Homo sapiens, U-87 MG, 48 h, 46-h incubation + 2-h Alamar blue, read-out: IC50 against proliferation of U87-MG cells
# Protocol: (§4) Cells (U87-MG, A375, HeLa, A549, MCF7, and MCF7 ADR-res) are cultured in DMEM with 10% fetal bovine serum and streptomycin/penicillin. Solutions of the test compounds (1 μL) are spotted onto a 96-well culture plate, followed by addition of cells (1×10^4) in 100 μL. After 46-h incubation, 10 μL of Alamar blue reagent is added to each well. After 2-h, the excitation/emission wavelengths at 544/590 nm are measured using Fluostar.
# [7] = tested on: A549 cells; assay: Proliferation assay (Alamar blue), A549; format: cell-based; conditions: Homo sapiens, 48 h; A549, 46-h incubation + 2-h Alamar blue; read-out: IC50 against proliferation of A549 cells
# Protocol: as §4
Compound,IC50 [1] [nM],IC50 [2] [nM],IC50 [3] [nM],IC50 [4] [nM],IC50 [5] [nM],IC50 [6] [nM],IC50 [7] [nM]
"CCNC(=O)Nc1ccc(-c2nc(N3CCOCC3)nc3c2cnn3CC(C)(C)O)cc1 [Example 1, 1-ethyl-3-[4-[1-(2-hydroxy-2-methyl-propyl)-6-morpholino-pyrazolo[3,4-d]pyrimidin-4-yl]phenyl]urea]",< 110,> 100,> 100,> 100,> 100,< 1000,< 1000
"CNC(=O)Nc1ccc(-c2nc(N3CCOC[C@@H]3C)nc3c2cnn3C2CCCC2)cc1 [Example 25, N-{4-[6-((3S)-3-methylmorpholin-4-yl)-1-cyclopentylpyrazolo[4,5-e]pyrimidin-4-yl]phenyl}(methylamino)carboxamide]",–,–,–,–,–,< 1000,< 1000
"CNC(=O)Nc1ccc(-c2nc(N3CCOCC3)nc3c2cnn3CC(C)(C)O)cc1 [Example 2, 1-[4-[1-(2-hydroxy-2-methyl-propyl)-6-morpholino-pyrazolo[3,4-d]pyrimidin-4-yl]phenyl]-3-methyl-urea]",< 110,> 100,> 100,> 100,> 100,< 1000,< 1000
"CNC(=O)Nc1ccc(-c2nc(N3CCOCC3)nc3c2cnn3C(C)C)cc1 [Example 3, 1-[4-(1-isopropyl-6-morpholino-pyrazolo[3,4-d]pyrimidin-4-yl)phenyl]-3-methyl-urea]",< 110,> 100,> 100,> 100,> 100,–,–
"CNC(=O)Nc1ccc(-c2nc(N3CCOCC3)nc3c2cnn3C2CCN(C(=O)OC)CC2)cc1 [Example 6, methyl 4-[4-[4-(methylcarbamoylamino)phenyl]-6-morpholino-pyrazolo[3,4-d]pyrimidin-1-yl]piperidine-1-carboxylate]",< 110,> 100,> 100,> 100,> 100,–,–
"CNC(=O)Nc1ccc(-c2nc(N3CCOCC3)nc3c2cnn3C2CCN(C(=O)CO)CC2)cc1 [Example 9, 1-[4-[1-[1-(2-hydroxyacetyl)-4-piperidyl]-6-morpholino-pyrazolo[3,4-d]pyrimidin-4-yl]phenyl]-3-methyl-urea]",–,–,–,–,–,< 1000,< 1000
"CNC(=O)Nc1ccc(-c2nc(N3CCOCC3)nc3c2cnn3C2CCN(C(=O)[C@H](C)O)CC2)cc1 [Example 10, 1-[4-[1-[1-[(2S)-2-hydroxypropanoyl]-4-piperidyl]-6-morpholino-pyrazolo[3,4-d]pyrimidin-4-yl]phenyl]-3-methylurea]",–,–,–,–,–,< 1000,< 1000

# Now from value to compound:
IC50 [1] [nM],IC50 [2] [nM],IC50 [3] [nM],IC50 [4] [nM],IC50 [5] [nM],IC50 [6] [nM],IC50 [7] [nM],Compound
< 110,> 100,> 100,> 100,> 100,< 1000,< 1000,"CNC(=O)Nc1ccc(-c2nc(N3CCOCC3)nc3c2cnn3C2CCOCC2)cc1 [Example 13, 1-methyl-3-[4-(6-morpholino-1-tetrahydropyran-4-yl-pyrazolo[3,4-d]pyrimidin-4-yl)phenyl]urea]"
< 110,> 100,> 100,> 100,> 100,< 1000,< 1000,"CNC(=O)Nc1ccc(-c2nc(N3CCOC[C@@H]3C)nc3c2cnn3C2CCOCC2)cc1 [Example 15, 1-methyl-3-[4-[6-[(3S)-3-methylmorpholin-4-yl]-1-tetrahydropyran-4-yl-pyrazolo[3,4-d]pyrimidin-4-yl]phenyl]urea]"
–,–,–,–,–,< 1000,< 1000,"CNC(=O)Nc1ccc(-c2nc(N3CC4CCC(C3)O4)nc3c2cnn3C2CCOCC2)cc1 [Example 14, 1-methyl-3-[4-[6-(8-oxa-3-azabicyclo[3.2.1]octan-3-yl)-1-tetrahydropyran-4-yl-pyrazolo[3,4-d]pyrimidin-4-yl]phenyl]urea]"
–,–,–,–,–,< 1000,< 1000,"CNC(=O)Nc1ccc(-c2nc(N3CCOCC3)nc3c2cnn3C2CCCC2)cc1 [Example 24, N-[4-(1-cyclopentyl-6-morpholin-4-ylpyrazolo[4,5-e]pyrimidin-4-yl)phenyl](methylamino)carboxamide]"
–,–,–,–,–,< 1000,< 1000,"CNC(=O)Nc1ccc(-c2nc(N3CCOCC3)nc3c2cnn3C2CCN(C(=O)COC)CC2)cc1 [Example 11, 1-[4-[1-[1-(2-methoxyacetyl)-4-piperidyl]-6-morpholino-pyrazolo[3,4-d]pyrimidin-4-yl]phenyl]-3-methyl-urea]"
< 110,> 100,> 100,> 100,> 100,–,–,"CNC(=O)Nc1ccc(-c2nc(N3CCOC[C@@H]3C)nc3c2cnn3CC(C)(C)O)cc1 [Example 16, N-{4-[6-((3S)-3-methylmorpholin-4-yl)-1-(2-hydroxy-2-methylpropyl)pyrazolo[4,5-e]pyrimidin-4-yl]phenyl}(methylamino)carboxamide]"
–,–,–,–,–,< 1000,< 1000,"CNC(=O)Nc1ccc(-c2nc(N3CCOCC3)nc3c2cnn3C2CCC(O)CC2)cc1 (stereo not shown) [Example 22, N-{4-[1-(4-hydroxycyclohexyl)-6-morpholin-4-ylpyrazolo[4,5-e]pyrimidin-4-yl]phenyl}(methylamino)carboxamide]"
–,–,–,–,–,< 1000,< 1000,"CNC(=O)Nc1ccc(-c2nc(N3CCOCC3)nc3c2cnn3C2CCC(CO)CC2)cc1 (stereo not shown) [Example 20, N-(4-{1-[4-(hydroxymethyl)cyclohexyl]-6-morpholin-4-ylpyrazolo[4,5-e]pyrimidin-4-yl}phenyl)(methylamino)carboxamide]"
< 110,> 100,> 100,> 100,> 100,–,–,"CNC(=O)Nc1ccc(-c2nc(N3CCOC[C@H]3C)nc3c2cnn3CC(C)(C)O)cc1 [Example 17, N-{4-[6-((3R)-3-methylmorpholin-4-yl)-1-(2-hydroxy-2-methylpropyl)pyrazolo[4,5-e]pyrimidin-4-yl]phenyl}(methylamino)carboxamide]"

# — patent US8912178B2, “mTOR selective kinase inhibitors” (Xcovery Holdings Company, LLC, priority 2010, dated 2014)
